Tests used:
CSF-1R (Fms, active) = biological target: T1, CSF-1R (Fms, active) (Homo sapiens, UniProt P07333); experiment: Evaluation of CSF-1R inhibitory activity by TR-FRET method (HTRF KinEASE-TK kit); assay type: biochemical; settings: for IC50: TR-FRET method, phosphorylation of substrate peptide, enzyme 0.05 μg/mL; for inhibitory activities against CSF-1R (in words): statement referring to the Test Examples
T1 construct: purchased Eurofins DiscoverX Products, LLC 14-551
Protocol: The CSF-1R inhibitory activity of an inventive compound was evaluated by a TR-FRET method using phosphorylation of a substrate peptide of CSF-1R as the index.
The inventive compound was dissolved in dimethyl sulfoxide sterilized by filtration to prepare a 10 μmol/L solution. This solution was dispensed using an acoustic noncontact type nanoliter dispenser (Echo 550, LABCYTE Inc.) such that the final concentrations were within a range from 0.25 to 180 nmol/L.
The assay was performed using an HTRF™ KinEASE™-TK kit (Cisbio Bioassays, 62TK0PEC) by the procedure in accordance with the manual (62TK0PEC rev04(2009)). In the assay, a 384-well plate (Greiner 784076 Black 384 well, Small volume, Greiner Bio-One International GmbH) was used. The enzyme was Fms, active (14-551, Eurofins DiscoverX Products, LLC), which was prepared such that the final concentration was 0.05 μg/mL. TR-FRET measurement (fluorescence of 620 nm and 665 nm) was performed using an HTRF-dedicated microplate reader (K-101, Kyoritsu Radio Service Co., Ltd.). The proportion of the fluorescence quantity at each wavelength as the index of phosphorylation [((quantity of 665 nm fluorescence)/(quantity of 620 nm fluorescence))×10,000] was calculated, and the IC50 value was determined by statistical treatment of the proportion of the fluorescence quantity at each compound concentration.

[1] = system: human non-small cell lung cancer cell line NCI-H460; experiment: Antitumor effect in human non-small cell lung cancer cell line NCI-H460 subcutaneously transplanted nude mouse model; assay type: in vivo, BALB/c-nu/nu mouse; settings: 300 mg/kg by gavage
Protocol: The antitumor effect of the inventive compound was examined using a human non-small cell lung cancer cell line NCI-H460 subcutaneously transplanted nude mouse model.
A cell culture medium was prepared by adding 5.6 mL of Penicillin-Streptomycin (Sigma-Aldrich Co. LLC), 56 mL of FBS (MP Biomedicals), 5.6 mL of 1 mol/L HEPES (Sigma-Aldrich Co. LLC), 5.6 mL of 100 mmol/L Sodium Pyruvate (Life Technologies), and 1.4 g of D-(+)-Glucose (Wako Pure Chemical Industries, Ltd.) to a RPMI1640 culture medium (Sigma-Aldrich Co. LLC). NCI-H460 cells (American Type Culture Collection) were cultured using the prepared culture medium at 37° C. in a 5% CO2 incubator.
The cultured NCI-H460 cells were suspended in PBS. […]
From the day of grouping, the administration solutions were administered by gavage to mice transplanted with cancer cells (15 mice in each group) for the total of 22 days, once a day on the day of the grouping and the last day and twice a day on other days. […] The administration volume was calculated from the last body weight of each.
The tumor volume of each mouse was calculated by the following equation, and the antitumor effect was evaluated using the tumor volume as the index. […]

T1 sequence (P07333 20-972): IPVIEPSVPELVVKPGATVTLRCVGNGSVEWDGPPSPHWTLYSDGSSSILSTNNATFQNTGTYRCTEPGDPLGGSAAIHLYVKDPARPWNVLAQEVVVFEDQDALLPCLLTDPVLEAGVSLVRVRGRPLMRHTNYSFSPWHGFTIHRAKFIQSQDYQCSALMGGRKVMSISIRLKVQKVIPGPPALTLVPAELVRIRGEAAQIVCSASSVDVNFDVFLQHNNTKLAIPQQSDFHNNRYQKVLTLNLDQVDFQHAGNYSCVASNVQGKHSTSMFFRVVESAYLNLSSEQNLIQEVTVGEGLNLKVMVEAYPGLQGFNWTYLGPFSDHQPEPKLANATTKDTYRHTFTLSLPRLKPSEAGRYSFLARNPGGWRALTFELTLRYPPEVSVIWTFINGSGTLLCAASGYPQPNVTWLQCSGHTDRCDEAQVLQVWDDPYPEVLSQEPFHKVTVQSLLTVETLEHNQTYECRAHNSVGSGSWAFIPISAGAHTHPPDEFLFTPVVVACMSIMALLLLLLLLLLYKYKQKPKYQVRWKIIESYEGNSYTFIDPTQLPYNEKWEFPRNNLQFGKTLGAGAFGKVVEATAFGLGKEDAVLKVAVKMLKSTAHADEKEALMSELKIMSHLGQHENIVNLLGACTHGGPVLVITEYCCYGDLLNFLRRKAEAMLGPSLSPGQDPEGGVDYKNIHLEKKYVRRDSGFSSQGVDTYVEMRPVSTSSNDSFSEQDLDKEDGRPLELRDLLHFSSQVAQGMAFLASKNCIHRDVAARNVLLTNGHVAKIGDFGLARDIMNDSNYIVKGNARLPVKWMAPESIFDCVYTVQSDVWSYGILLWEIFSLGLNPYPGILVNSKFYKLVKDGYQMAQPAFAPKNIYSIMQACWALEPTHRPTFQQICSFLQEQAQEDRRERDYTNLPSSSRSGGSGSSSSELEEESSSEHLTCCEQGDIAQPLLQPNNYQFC

| Compound | IC50 (CSF-1R (Fms, active)) | inhibitory activities against CSF-1R (in words) (CSF-1R (Fms, active)) | Tumor growth inhibition rate (TGI %) ([1]; 22 days, last administration day, NCI-H460 nude mouse) | tumor growth inhibition (in words, FIG. 1) ([1]; tumor volume vs Control group, Student's t test) |
| --- | --- | --- | --- | --- |
| CC(=O)N1CC=C(c2[nH]c3ncc(C#CCCO)cc3c2CC2CCOCC2)CC1 [Example 8, 1-(4-(5-(4-hydroxybut-1-yn-1-yl)-3-((tetrahydro-2H-pyran-4-yl)methyl)-1H-pyrrolo[2,3-b]pyridin-2-yl)-3,6-dihydropyridin-1(2H)-yl)ethan-1-one] | < 0.01 µM | potent inhibitory activities |  |  |
| COc1ccc(-c2[nH]c3ncc(C#CCCO)cc3c2CN2CCOCC2)cc1 [Example 1, 4-(2-(4-methoxyphenyl)-3-(morpholinomethyl)-1H-pyrrolo[2,3-b]pyridin-5-yl)but-3-yn-1-ol] | 0.03 to 0.1 µM | potent inhibitory activities | 61% | significant tumor growth inhibition |
| COc1ccc(-c2[nH]c3ncc(C#CCCO)cc3c2CC2CCOCC2)cn1 [Example 9, 4-(2-(6-methoxypyridin-3-yl)-3-((tetrahydro-2H-pyran-4-yl)methyl)-1H-pyrrolo[2,3-b]pyridin-5-yl)but-3-yn-1-ol] | < 0.01 µM | potent inhibitory activities |  |  |
| COc1cc(-c2[nH]c3ncc(C#CCCO)cc3c2CN2C3CCC2COC3)ccc1OC1COC1 [Example 6, 4-(3-((3-oxa-8-azabicyclo[3.2.1]octan-8-yl)methyl)-2-(3-methoxy-4-(oxetan-3-yloxy)phenyl)-1H-pyrrolo[2,3-b]pyridin-5-yl)but-3-yn-1-ol] | 0.01 to 0.03 µM | potent inhibitory activities |  |  |
| COc1ccc(-c2[nH]c3ncc(C#CCCO)cc3c2CN2CCOCC2)cc1OC [Example 3, 4-(2-(3,4-dimethoxyphenyl)-3-(morpholinomethyl)-1H-pyrrolo[2,3-b]pyridin-5-yl)but-3-yn-1-ol] | 0.01 to 0.03 µM | potent inhibitory activities |  |  |
| OCCC#Cc1cnc2[nH]c(-c3ccc(N4CCOCC4)cc3)c(CN3CCOCC3)c2c1 [Example 4, 4-(3-(morpholinomethyl)-2-(4-morpholinophenyl)-1H-pyrrolo[2,3-b]pyridin-5-yl)but-3-yn-1-ol] | < 0.01 µM | potent inhibitory activities |  |  |
| COc1ccc(-c2[nH]c3ncc(C#CCCO)cc3c2CN2C3CCC2COC3)cc1 [Example 2, 4-(3-((3-oxa-8-azabicyclo[3.2.1]octan-8-yl)methyl)-2-(4-methoxyphenyl)-1H-pyrrolo[2,3-b]pyridin-5-yl)but-3-yn-1-ol] | 0.01 to 0.03 µM | potent inhibitory activities |  |  |
| CC(=O)N1CC=C(c2[nH]c3ncc(C#CCCO)cc3c2CC(C)C)CC1 [Example 7, 1-(4-(5-(4-hydroxybut-1-yn-1-yl)-3-isobutyl-1H-pyrrolo[2,3-b]pyridin-2-yl)-3,6-dihydropyridin-1(2H)-yl)ethan-1-one] | < 0.01 µM | potent inhibitory activities |  |  |
| OCCC#Cc1cnc2[nH]c(-c3ccc(N4CCC(O)CC4)cc3)c(CN3CCOCC3)c2c1 [Example 5, 1-(4-(5-(4-hydroxybut-1-yn-1-yl)-3-(morpholinomethyl)-1H-pyrrolo[2,3-b]pyridin-2-yl)phenyl)piperidin-4-ol] | < 0.01 µM | potent inhibitory activities |  |  |

From patent US20220162206A1, “NOVEL AZAINDOLE DERIVATIVE” (KOWA COMPANY, LTD., priority 2019, published 2022)
